Data set [1] has as its system Mus musculus. The data set is described as follows: Reduction in serum uric acid level in acute hyperuricemia state Kunming mouse model assessed as SUA level by measuring decrease ratio at 0.5 mg/kg, po relative to control. The data set is classed as functional. Also on record: scale not given: the % may be the effect or the level left.
The nature of data set [2]: MRT (0 to infinity) in Sprague-Dawley rat at 2 mg/kg, po measured upto 24 hrs by LC-MS/MS-AR analysis. The data set is classed as ADME, organism-based. The conditions noted are these: in vivo.
Data set [3] deals with Rattus norvegicus. The data set is described as follows: Reduction in serum uric acid level in po dosed acute hyperuricemia state Sprague-Dawley rat model assessed as SUA level by measuring decrease ratio relative to control. It counts as functional. Also on record: scale not given: the % may be the effect or the level left.
Data set [4] is described as follows: Acute toxicity in Kunming mouse assessed as anorexia at 250 to 1000 mg/kg, po administered as single dose monitored for 7 days. It counts as organism-based. The following applies: in vivo, 168 h, dose 250-1000 mg/kg, time 7 day.
Data set [5] is described as follows: Half life in Sprague-Dawley rat at 2 mg/kg, iv measured upto 24 hrs by LC-MS/MS-AR analysis. It counts as ADME, organism-based. The conditions noted are these: in vivo.
Another data set addresses T1, Cytochrome P450 1A2 (Homo sapiens, UniProt P05177).
T1 sequence (P05177 whole entry): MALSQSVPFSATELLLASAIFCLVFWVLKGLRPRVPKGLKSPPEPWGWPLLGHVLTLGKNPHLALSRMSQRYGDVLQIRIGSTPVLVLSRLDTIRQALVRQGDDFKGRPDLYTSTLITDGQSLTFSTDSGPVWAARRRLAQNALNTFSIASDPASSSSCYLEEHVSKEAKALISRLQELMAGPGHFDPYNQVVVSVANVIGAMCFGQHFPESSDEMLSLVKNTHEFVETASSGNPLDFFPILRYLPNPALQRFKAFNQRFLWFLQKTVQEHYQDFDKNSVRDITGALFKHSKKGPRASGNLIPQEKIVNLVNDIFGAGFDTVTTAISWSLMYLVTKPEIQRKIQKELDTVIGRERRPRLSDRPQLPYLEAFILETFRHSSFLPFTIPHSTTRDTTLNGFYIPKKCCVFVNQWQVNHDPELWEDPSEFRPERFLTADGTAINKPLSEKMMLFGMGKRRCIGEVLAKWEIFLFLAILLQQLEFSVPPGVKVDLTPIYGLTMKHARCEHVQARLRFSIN
The data set can be described thus: Inhibition of CYP1A2 in human liver microsomes measured after 40 mins incubation by LC-MS/MS analysis. It counts as ADME, Microsome. For orientation: Microsomes from liver hold many membrane-bound enzymes, among them those of drug oxidation.

A short description of data set [6]: AUC (0 to infinity) in Sprague-Dawley rat at 2 mg/kg, po measured upto 24 hrs by LC-MS/MS-AR analysis. It counts as ADME, organism-based. The conditions noted are these: in vivo.
For data set [7], the system named is Mus musculus. The data set can be described thus: Reduction in serum uric acid level in acute hyperuricemia state Kunming mouse model assessed as SUA level by measuring decrease ratio at 0.25 mg/kg, po relative to control. The data set is classed as functional. Also on record: scale not given: the % may be the effect or the level left.
The nature of data set [8]: Subacute toxicity in Kunming female mouse assessed as change in body weight at 100 mg/kg, po administered every other day for 14 days. It counts as organism-based. The following applies: in vivo, 336 h, time 14 day.
Data set [9] is described as follows: Toxicity in Kunming female mouse assessed as balloon like degeneration of liver at 100 mg/kg, po administered every other day for 14 days by H and E staining based assay. It counts as organism-based. The conditions noted are these: in vivo, 336 h, time 14 day.
Data set [10] can be described thus: Tmax in Sprague-Dawley rat at 2 mg/kg, iv measured upto 24 hrs by LC-MS/MS-AR analysis. The data set is classed as ADME, organism-based. The following applies: in vivo.
Data set [11] in a line: Toxicity in Kunming female mouse assessed as pathological changes at 100 mg/kg, po administered every other day for 14 days by H and E staining based assay. It counts as organism-based. The conditions noted are these: in vivo, 336 h, time 14 day.
For data set [12], the target named is T2, Solute carrier family 22 member 12 (Homo sapiens, UniProt Q96S37).
T2 sequence (Q96S37 whole entry): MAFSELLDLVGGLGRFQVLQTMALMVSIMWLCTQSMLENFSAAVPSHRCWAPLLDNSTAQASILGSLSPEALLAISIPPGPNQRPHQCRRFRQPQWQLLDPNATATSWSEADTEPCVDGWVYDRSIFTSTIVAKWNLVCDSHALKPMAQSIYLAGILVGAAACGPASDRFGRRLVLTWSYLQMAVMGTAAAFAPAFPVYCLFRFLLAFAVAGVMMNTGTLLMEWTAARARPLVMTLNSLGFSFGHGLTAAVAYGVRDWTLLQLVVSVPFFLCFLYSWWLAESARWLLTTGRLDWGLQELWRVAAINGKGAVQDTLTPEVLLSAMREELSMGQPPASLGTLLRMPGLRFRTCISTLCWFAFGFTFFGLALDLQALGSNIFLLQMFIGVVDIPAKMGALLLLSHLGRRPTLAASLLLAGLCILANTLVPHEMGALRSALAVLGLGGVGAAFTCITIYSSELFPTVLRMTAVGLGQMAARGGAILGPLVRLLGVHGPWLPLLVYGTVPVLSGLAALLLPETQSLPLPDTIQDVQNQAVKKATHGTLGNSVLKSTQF
The data set is described as follows: Inhibition of human URAT1 expressed in HEK293T cells using 14C- uric acid assessed as uric acid absorption by measuring intracellular liquid radiation value by liquid scintillation counting analysis. The data set is classed as cell-based.

For another data set, the target named is Cytochrome P450 3A4 (Homo sapiens, UniProt P08684). The data set is described as follows: Inhibition of CYP3A4 in human liver microsomes using midazolam measured after 40 mins incubation by LC-MS/MS analysis. The data set is classed as ADME, Microsome.
Cytochrome P450 3A4, sequence (P08684 whole entry): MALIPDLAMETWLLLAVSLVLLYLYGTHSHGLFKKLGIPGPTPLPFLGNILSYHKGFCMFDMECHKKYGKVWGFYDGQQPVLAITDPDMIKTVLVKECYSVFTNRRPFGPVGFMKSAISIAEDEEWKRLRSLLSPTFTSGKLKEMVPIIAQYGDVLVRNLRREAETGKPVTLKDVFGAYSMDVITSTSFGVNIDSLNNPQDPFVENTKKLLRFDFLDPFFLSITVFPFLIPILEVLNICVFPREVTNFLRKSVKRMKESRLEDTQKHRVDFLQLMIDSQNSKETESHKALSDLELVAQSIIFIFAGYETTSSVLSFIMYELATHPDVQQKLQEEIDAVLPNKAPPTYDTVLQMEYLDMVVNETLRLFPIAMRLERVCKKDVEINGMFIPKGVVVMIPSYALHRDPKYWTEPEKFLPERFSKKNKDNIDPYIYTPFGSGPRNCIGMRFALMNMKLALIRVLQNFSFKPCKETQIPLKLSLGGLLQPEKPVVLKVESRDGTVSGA
For data set [13], the species on record is Mus musculus. The data set can be described thus: Reduction in serum uric acid level in chronic hyperuricemia state Kunming mouse model assessed as SUA level by measuring decrease ratio relative to control. The data set is classed as functional. Also on record: scale not given: the % may be the effect or the level left.
Data set [14] can be described thus: AUC (0 to t) in Sprague-Dawley rat at 2 mg/kg, po measured upto 24 hrs by LC-MS/MS-AR analysis. The data set is classed as ADME, organism-based. The following applies: in vivo.
For data set [15], the system named is Rattus norvegicus. The data set can be described thus: Potency index, ratio of compound to lesinurad for reduction in serum uric acid level in po dosed acute hyperuricemia state Sprague-Dawley rat model assessed as decrease ratio of SUA level. The data set is classed as functional.

pIC50: −log10 of the molar value.

Experimental findings from ChEMBL document CHEMBL5528083, “Discovery of a Novel Thienopyrimidine Compound as a Urate Transporter 1 and Glucose Transporter 9 Dual Inhibitor with Improved Efficacy and Favorable Druggability” (J Med Chem, 2024) are described below.

Broadly, the MRT inf is a mean duration of stay, worked out from the concentration-time curve. In general, half-life refers to the time needed for the level to fall by half in the phase considered. One may read the pIC50 as the IC50 on a negative log10 scale, so that one unit is a factor of ten. For orientation: AUC means the area under the concentration-time curve, a measure of exposure. Broadly, the Tmax is the time at which the peak concentration occurs. For orientation: AUC(0-t) means exposure summed from dosing to a finite time, without extrapolation to infinity. With `O=C(O)CCCSc1nc(Nc2ccc(C3CC3)c3ccccc23)c2sccc2n1`, the Activity in the data set on Mus musculus [1] is reported as 66.49%; in the data set on Rattus norvegicus [3], 90.12%; in data set [4], “Non-Toxic”; with Mus musculus [7] it was 9.89%; in data set [8] it was “Toxic”; in [9], “Non-Toxic”. The Activity entry was “Non-Toxic” in [11] and 76.33% in the data set filed under Mus musculus [13]. The compound further yielded a mean residence time (MRT inf) in data set [2] of 2.5 h. For the same compound, the half-life in [5] was 1.6 h. Further, the pIC50 against Cytochrome P450 1A2 was 5.02; in data set [12], 5.70; against Cytochrome P450 3A4 it was < 4.70. Further, in data set [6], the AUC was 1.9291 µg·h/mL. In addition, in [10], the time to peak (Tmax) was determined as 4.98 min. This compound also returned an area under the curve AUC(0-t) at 24 h in data set [14] of 1.81 µg·h/mL. Moreover, the Ratio in the data set on Rattus norvegicus [15] turned out to be 1.8.
